The data set concerns GENE-TOX genotoxicity assays, various organisms and cells. Kind of data set: GENE-TOX mutagenicity studies.
Setting [1] is: Species/Cell Type: Drosophila melanogaster, Assay Type: Sex-linked recessive lethal gene mutation, Assay Code: SRL+, Evaluation Type: Evaluation A (Pre-1980).
Where [2] appears, read: Species/Cell Type: Escherichia coli polA (W3119 vs P3478), Assay Type: Rec-assay, DNA effects (bacterial DNA repair), Assay Code: RE1+, Evaluation Type: Evaluation A (Pre-1980).
Where [3] appears, read: Species/Cell Type: Hordeum vulgare (barley), Assay Type: Chromosome aberrations, Assay Code: HOC+, Evaluation Type: Evaluation A (Pre-1980).
Setting [4] is: Species/Cell Type: Mammalian polychromatic erythrocytes, Assay Type: Micronucleus test, chromosome aberrations, Assay Code: MNT+, Evaluation Type: Evaluation B (Post-1980).
Setting [5] is: Species/Cell Type: Neurospora crassa, Assay Type: Forward gene mutation, Assay Code: NEF+, Evaluation Type: Evaluation A (Pre-1980).
Where [6] appears, read: Species/Cell Type: Saccharomyces cerevisiae, Assay Type: Mitotic recombination or gene conversion, Assay Code: YEC+, Evaluation Type: Evaluation A (Pre-1980).
Where [7] appears, read: Species/Cell Type: Saccharomyces cerevisiae, Assay Type: Mitotic recombination or gene conversion, Assay Code: YEH+, Evaluation Type: Evaluation A (Pre-1980).
Where [8] appears, read: Species/Cell Type: Salmonella typhimurium (one or more of the five standard strains: TA98, TA100, TA1535, TA1537, and TA1538), Assay Type: Histidine reverse gene mutation, Ames assay, Assay Code: SAL+, Evaluation Type: Evaluation A (Pre-1980).
Where [9] appears, read: Species/Cell Type: Vicia faba, Assay Type: Chromosome aberrations, Assay Code: VIC+, Evaluation Type: Evaluation A (Pre-1980).
Where [10] appears, read: Species/Cell Type: Neurospora crassa, Assay Type: Reverse gene mutation, Assay Code: NER+, Evaluation Type: Evaluation A (Pre-1980).

The structures appear in SMILES notation. Activity calls are given as the source filed them. How the calls were made is not given here.

In the case of `CCN(N=O)C(N)=O`, the mutagenic call is “active; positive” (Species/Cell Type: Arabidopsis species, Assay Type: Gene mutation, Assay Code: ARM+D, Dose Response: With dose response, Evaluation Type: Evaluation A (Pre-1980)); “active; positive” (Species/Cell Type: Chinese hamster ovary (CHO) cells, Assay Type: Forward gene mutation at the HPRT locus, Assay Code: CHO+D, Dose Response: With dose response, Evaluation Type: Evaluation A (Pre-1980)); “active; positive” (Species/Cell Type: Drosophila melanogaster, Assay Type: Aneuploidy, partial sex chromosome loss, chromosome aberrations, Assay Code: DAP+M, Evaluation Type: Evaluation A (Pre-1980)); “active; positive” (Species/Cell Type: Drosophila melanogaster, Assay Type: Aneuploidy, whole sex chromosome loss, chromosome aberrations, Assay Code: DAC+M, Evaluation Type: Evaluation A (Pre-1980)); “active; positive” under setting [1]; “no conclusion” (Species/Cell Type: Drosophila melanogaster, Sex: Male, Assay Type: Heritable translocation test, chromosome aberrations, Assay Code: DHTT, Evaluation Type: Evaluation A (Pre-1980)). In addition, the mutagenic call by setting is: under setting [2], “active; positive”; (Species/Cell Type: Fischer rat embryo (RLV/1706) cells, Assay Type: Cell transformation, viral enhanced, Assay Code: CTR+, Evaluation Type: Evaluation A (Pre-1980)) “active; positive”; under setting [3], “active; positive”; (Species/Cell Type: Hordeum vulgare (barley), Assay Type: Gene mutation, Assay Code: HOM+, Evaluation Type: Evaluation A (Pre-1980)) “active; positive”; (Species/Cell Type: Human diploid fibroblasts, Assay Type: Unscheduled DNA synthesis (UDS) in vitro, DNA effects, Assay Code: UDH+, Evaluation Type: Evaluation A (Pre-1980)) “active; positive”; (Species/Cell Type: Human lymphocytes or leukocytes, Assay Type: Chromosome aberrations in vitro, Assay Code: CY7+D, Dose Response: With dose response, Evaluation Type: Evaluation A (Pre-1980)) “active; positive”. Further, the mutagenic call (Species/Cell Type: Human, Assay Type: Sister-chromatid exchange (SCE) in vitro, Assay Code: SC1+, Evaluation Type: Evaluation A (Pre-1980)) is “active; positive”; the mutagenic call under setting [4] is “active; positive”; the mutagenic call (Species/Cell Type: Mouse germ cells, Sex: Male, Assay Type: Unscheduled DNA synthesis (UDS) in vivo, DNA effects, Assay Code: UDT+, Evaluation Type: Evaluation A (Pre-1980)) is “active; positive”; the mutagenic call (Species/Cell Type: Mouse, Sex: Female, Assay Type: Spot test, gene mutation, Assay Code: MST+, Evaluation Type: Evaluation A (Pre-1980)) was “active; positive”; the mutagenic call (Species/Cell Type: Mouse, Sex: Male, Assay Type: Specific locus test, gene mutation, Assay Code: SLT+, Evaluation Type: Evaluation A (Pre-1980)) is “active; positive”; the mutagenic call under setting [5] is “active; positive”. Further, the mutagenic call is “active; positive” (Species/Cell Type: Nonhuman bone marrow, Assay Type: Chromosome aberrations, in vivo, Assay Code: CY#+, Evaluation Type: Evaluation A (Pre-1980)); “active; positive” (Species/Cell Type: Nonhuman, Assay Type: Sister-chromatid exchange (SCE) in vitro, Assay Code: SC2+D, Dose Response: With dose response, Evaluation Type: Evaluation A (Pre-1980)); “active; positive” (Species/Cell Type: Nonhuman, Assay Type: Sister-chromatid exchange (SCE) in vivo, Assay Code: SC3+D, Dose Response: With dose response, Evaluation Type: Evaluation B (Post-1980)); “active; positive” under setting [6]; “active; positive” under setting [7]; “active; positive” under setting [8]. The mutagenic call reads like this: (Species/Cell Type: Salmonella typhimurium, Assay Type: Forward and reverse gene mutation, host-mediated assay, Assay Code: HMA+, Evaluation Type: Evaluation A (Pre-1980)) “active; positive”; (Species/Cell Type: Syrian hamster embryo (SHE) cells, Assay Type: Cell transformation, clonal assay, Assay Code: CTCT, Evaluation Type: Evaluation A (Pre-1980)) “no conclusion”; under setting [9], “active; positive”; (Species/Cell Type: Zea mays (corn), Assay Type: Gene mutation, Assay Code: ZEM+D, Dose Response: With dose response, Evaluation Type: Evaluation A (Pre-1980)) “active; positive”. Also, the call (Species/Cell Type: Nonhuman, Assay Type: In vivo carcinogenicity studies, Assay Code: CCG+, Evaluation Type: Evaluation A (Pre-1980)) was “active; positive”.
As for `CC(=O)Oc1ccc2c3c1O[C@H]1[C@@H](OC(C)=O)C=C[C@H]4[C@@H](C2)N(C)CC[C@@]341`, under “Species/Cell Type: Nonhuman, Assay Type: Sister-chromatid exchange (SCE) in vivo, Assay Code: SC3+, Evaluation Type: Evaluation B (Post-1980)”, the mutagenic call was “active; positive”.
As to `COC(=O)NC(=S)Nc1ccccc1NC(=S)NC(=O)OC`, the mutagenic call is, setting by setting: (Species/Cell Type: Aspergillus nidulans, Assay Type: Aneuploidy, chromosome aberrations, Assay Code: ASN+, Evaluation Type: Evaluation A (Pre-1980)) “active; positive”; (Species/Cell Type: Mammalian germ cells, Sex: Male, Assay Type: Chromosome aberrations in vivo, Assay Code: CY9-, Evaluation Type: Evaluation A (Pre-1980)) “inactive; negative”.
For the compound `CNO`, under setting [10], the mutagenic call was “active; positive”.
Regarding `CCN(Cc1ccc(CN(CC)C(=O)C(Cl)Cl)cc1)C(=O)C(Cl)Cl`, the mutagenic call (Species/Cell Type: Human, Sex: Male, Assay Type: Sperm morphology, Assay Code: SPH+, Evaluation Type: Evaluation A (Pre-1980)) is “active; positive”.
In the case of `O=C(O)c1ccccc1C(=O)Nc1cccc2ccccc12`, the mutagenic call by setting is: under setting [3], “active; positive”; under setting [9], “active; positive”.
For the compound `CS(=O)(=O)OCCNC(=O)N(CCCl)N=O`, the mutagenic call by setting is: under setting [1], “active; positive”; under setting [6], “active; positive”.
Turning to `NNC(=O)COc1ccc(Br)cc1CN1CCCCC1`, the mutagenic call (Species/Cell Type: Saccharomyces cerevisiae, Assay Type: Reverse gene mutation, Assay Code: YERT, Evaluation Type: Evaluation A (Pre-1980)) was “no conclusion”.
Turning to `O=NO`, the mutagenic call is “no conclusion” (Species/Cell Type: Arabidopsis species, Assay Type: Gene mutation, Assay Code: ARMT, Evaluation Type: Evaluation A (Pre-1980)); “active; positive” (Species/Cell Type: Aspergillus nidulans, Assay Type: Forward gene mutation, Assay Code: ASF+, Evaluation Type: Evaluation A (Pre-1980)); “active; positive” under setting [1]; “active; positive” under setting [2]; “active; positive” (Species/Cell Type: Human lymphocytes, Assay Type: Sister-chromatid exchange (SCE) in vitro, Assay Code: SCL+, Evaluation Type: Evaluation B (Post-1980)); “active; positive” (Species/Cell Type: Human, Assay Type: Sister-chromatid exchange (SCE) in vitro, Assay Code: SC1+, Evaluation Type: Evaluation B (Post-1980)). For the same compound, the mutagenic call runs as follows: (Species/Cell Type: Mammalian oocytes or early embryo, Assay Type: Chromosome aberrations in vivo, Assay Code: CYO+, Evaluation Type: Evaluation A (Pre-1980)) “active; positive”; under setting [4], “active; positive”; (Species/Cell Type: Mammalian polychromatic erythrocytes, Assay Type: Micronucleus test, chromosome aberrations, Assay Code: MNTT, Evaluation Type: Evaluation A (Pre-1980)) “no conclusion”; (Species/Cell Type: Mouse, Sex: Male, Assay Type: Heritable translocation test, chromosome aberrations, Assay Code: HTTT, Evaluation Type: Evaluation A (Pre-1980)) “no conclusion”; under setting [5], “active; positive”; under setting [10], “active; positive”. Moreover, the mutagenic call is, setting by setting: (Species/Cell Type: Nonhuman, Assay Type: Chromosome aberrations in vitro, Assay Code: CY&+D, Dose Response: With dose response, Evaluation Type: Evaluation A (Pre-1980)) “active; positive”; (Species/Cell Type: Nonhuman, Assay Type: Sister-chromatid exchange (SCE) in vitro, Assay Code: SC2+, Evaluation Type: Evaluation A (Pre-1980)) “active; positive”; (Species/Cell Type: Nonhuman, Assay Type: Sister-chromatid exchange (SCE) in vivo, Assay Code: SC3T, Evaluation Type: Evaluation B (Post-1980)) “no conclusion”; (Species/Cell Type: Rodents, Sex: Male, Assay Type: Dominant lethal test, Assay Code: DLT-, Evaluation Type: Evaluation A (Pre-1980)) “inactive; negative”; (Species/Cell Type: Saccharomyces cerevisiae, Assay Type: Forward gene mutation, Assay Code: YEF+, Evaluation Type: Evaluation A (Pre-1980)) “active; positive”; under setting [6], “active; positive”. The mutagenic call is “active; positive” under setting [7]; “active; positive” (Species/Cell Type: Saccharomyces cerevisiae, Assay Type: Reverse gene mutation, Assay Code: YER+, Evaluation Type: Evaluation A (Pre-1980)); “active; positive” under setting [8]; “inactive; negative” (Species/Cell Type: Salmonella typhimurium, Assay Type: Forward and reverse gene mutation, host-mediated assay, Assay Code: HMA-, Evaluation Type: Evaluation A (Pre-1980)); “active; positive” (Species/Cell Type: Schizosaccharomyces pombe, Assay Type: Forward gene mutation, Assay Code: YEY+, Evaluation Type: Evaluation A (Pre-1980)); “active; positive” (Species/Cell Type: Schizosaccharomyces pombe, Assay Type: Reverse gene mutation, Assay Code: YEZ+, Evaluation Type: Evaluation A (Pre-1980)). Also, the mutagenic call (Species/Cell Type: Syrian hamster embryo (SHE) cells, Assay Type: Cell transformation, clonal assay, Assay Code: CTC+, Evaluation Type: Evaluation A (Pre-1980)) was “active; positive”.
For the compound `CC(=O)ONC(=O)c1ccc2ccccc2c1`, the mutagenic call (Species/Cell Type: Nonhuman, Assay Type: Sister-chromatid exchange (SCE) in vitro, Assay Code: SC2+D, Dose Response: With dose response, Evaluation Type: Evaluation B (Post-1980)) was “active; positive”.

The values are drawn from PubChem BioAssay AID1259408 (Genetic Toxicology Data Bank (GENE-TOX), 2018).
